From publication PMC12286339 (PLOS One, 2025)
Several values for one entry are separate records, joined by “and”; a condition that tells them apart may be missing. Equal entries are not always repeated.

What was measured:
[1] = Pharmacokinetics in blood of C57BL/6 mice, 1st trial (single IV bolus, LC-MS, two-compartment model); assay type: in vivo; conditions: individual mice, Tun 10 mg/mL 30uL IV
Procedure: Eighty, 40 male (M) and 40 female (F), C57BL/6 mice were enrolled in the study on Day 0. Body weights, clinical observations, and digital caliper measurements were recorded. Eight (4M/4F) animals per treatment received a single 30uL intravenous bolus dose of the experimental samples (or control DMSO carrier) via the lateral tail vein, as shown in Fig 2A and S1 Table. […] After the first dosing, blood draws for the PK study were at 8-time points (5 min, 15 min, 30 min, 1 h, 2 h, 4 h, 6 h, 24 h). The mice were subdivided into 2 groups of 4 (2M/2F) mice each, with each subgroup having ~50 ul of blood collected via retro-orbital bleed for 4-time points (subgroup 1: 5 min, 30 min, 2h, and 6 h; subgroup 2: 15 min, 1h, 4h, and 24 h). In life, a collection of 50 μL of blood was diluted with 450 μL of ethanol and evaporated to dryness on a Speedvac evaporator under sterile conditions. The dried residues were stored at −80 °C and were shipped on dry ice to NCAUR, Peoria, for analysis. At the end of the study (24 h), the animals were euthanized, and terminal blood samples from all mice (100 µL) were collected via cardiac puncture, diluted with 900 μL of ethanol, and evaporated to dryness on a Speedvac. The dried residues are stored at −80 °C until ready for analysis.
For the comparative PK of tunicamycins in blood, drug concentrations were measured by LC–MS/MS as previously described. Different compartmental models (0, 1, or 2 compartments) and weighting options were assessed for goodness of fit by visual inspection of the observed versus predicted plots, weighted residual versus observed and predicted plots, and comparison of Akaike Information Criterion (AICc) values. A two-compartment IV bolus model was determined to describe the data best (S1 Fig).
Pharmacokinetic parameters were calculated by two-compartmental using a linear regression analysis and residuals method to calculate using Microsoft Excel 2024 using standard equations (Atkinson; 2007; Miyamato et al., 2019). Details about the PK equations to calculate drug concentrations and PK parameters are listed in the S1 Appendix.

[2] = 2nd mouse trial: co-administration with oxacillin, drug in blood, liver, heart and brain; conditions: 24 h after 30uL IV of Tun 6.7 mg/mL + oxacillin 6.7 mg/mL, individual mice
Procedure: In the second trial, which was a drug co-localization study, forty (20 male and 20 female) C57BL/6 mice were enrolled on Study Day 0 and were dosed according to the experimental design shown in Fig 2A and S3 Table. Body weights and clinical observations were recorded as before. […] Blood samples were taken (50 μL) 5 min, 15 min, 30 min, 1h, 2h, 4h, 6h, and 24h post-injection. At the end of the study (24 h post dose) the mice were euthanized by CO2 asphyxiation, and liver, brain and heart were collected. The organs were homogenized in ethanol, then filtered to remove solids, and the ethanolic filtrate dried by Speedvac evaporation. The dried residues were stored at −80 °C and shipped on dry ice. Drug concentrations in tissue were measured by LC–MS/MS as previously described.

[3] = tested on: sheep; parameters: method as in earlier work; conditions: cumulative from multiple smaller doses; cited from earlier work
[4] = in vivo; cited from earlier work

Molecule: CC(=O)N[C@H]1[C@@H](O[C@@H]2O[C@H](C[C@@H](O)[C@H]3O[C@@H](n4ccc(=O)[nH]c4=O)[C@H](O)[C@@H]3O)[C@H](O)[C@H](O)[C@H]2NC(=O)/C=C/CCCCCCCCCC(C)C)O[C@H](CO)[C@@H](O)[C@@H]1O [C15i]
- N-acyl variants in blood (1st trial) ([1]; time 0:05:00 (5 min)): 4.16 µg/mL and 5.09 µg/mL and 2.96 µg/mL
- N-acyl variants in blood (1st trial) ([1]; time 0:15:00 (15 min)): 3.05 µg/mL and 3.14 µg/mL and 1.44 µg/mL and 3.28 µg/mL
- N-acyl variants in blood (1st trial) ([1]; time 0:30:00 (30 min)): 0 ug/mL (2×) and 0.88 ug/mL and 1.74 ug/mL
- N-acyl variants in blood (1st trial) ([1]; time 1:00:00 (1 h)): 0 ug/mL (2×) and 0.77 ug/mL and 1.66 ug/mL
- N-acyl variants in blood (1st trial) ([1]; time 2:00:00 (2 h)): 0 µg/mL
- N-acyl variants in blood (1st trial) ([1]; time 4:00:00 (4 h)): 0 µg/mL
- N-acyl variants in blood (1st trial) ([1]; time 6:00:00 (6 h)): 0 µg/mL
- N-acyl variants in blood (1st trial) ([1]; time 24:00:00 (24 h)): 0 µg/mL
- N-acyl variants in brain (2nd trial) [2]: 0 µg/mL
- N-acyl variants in heart (2nd trial) [2]: 0 µg/mL
- N-acyl variants in liver (2nd trial) [2]: 0 µg/mL and 0.05015 µg/mL and 0.3411 µg/mL and 0.2948 µg/mL

Molecule: corynetoxins [Cnx]
- oral lethal dose [3]: 3.2 to 5.6 mg/kg

Molecule: CCC(C)CCCCCCCC/C=C/C(=O)N[C@H]1[C@H](O[C@H]2O[C@H](CO)[C@@H](O)[C@H](O)[C@H]2NC(C)=O)O[C@H](C[C@@H](O)[C@H]2O[C@@H](n3ccc(=O)[nH]c3=O)[C@H](O)[C@@H]2O)[C@H](O)[C@@H]1O (some centres unmarked) [C15a]
- N-acyl variants in blood (1st trial) ([1]; time 0:05:00 (5 min)): 0.654 µg/mL and 0.6 µg/mL and 0 µg/mL
- N-acyl variants in blood (1st trial) ([1]; time 0:15:00 (15 min)): 0 ug/mL (3×) and 0.45 ug/mL
- N-acyl variants in blood (1st trial) ([1]; time 0:30:00 (30 min)): 0 µg/mL
- N-acyl variants in blood (1st trial) ([1]; time 1:00:00 (1 h)): 0 µg/mL
- N-acyl variants in blood (1st trial) ([1]; time 2:00:00 (2 h)): 0 µg/mL
- N-acyl variants in blood (1st trial) ([1]; time 4:00:00 (4 h)): 0 µg/mL
- N-acyl variants in blood (1st trial) ([1]; time 6:00:00 (6 h)): 0 µg/mL
- N-acyl variants in blood (1st trial) ([1]; time 24:00:00 (24 h)): 0 µg/mL
- N-acyl variants in brain (2nd trial) [2]: 0 µg/mL
- N-acyl variants in heart (2nd trial) [2]: 0 µg/mL
- N-acyl variants in liver (2nd trial) [2]: 0 µg/mL and 0.03337 µg/mL and 0.02831 µg/mL

Molecule: CCCCCCCCCCCCCC/C=C/C(=O)N[C@H]1[C@H](O[C@H]2O[C@H](CO)[C@@H](O)[C@H](O)[C@H]2NC(C)=O)O[C@H](C[C@@H](O)[C@H]2O[C@@H](n3ccc(=O)[nH]c3=O)[C@H](O)[C@@H]2O)[C@H](O)[C@@H]1O [C17s]
- N-acyl variants in blood (1st trial) ([1]; time 0:05:00 (5 min)): 0 µg/mL
- N-acyl variants in blood (1st trial) ([1]; time 0:15:00 (15 min)): 0 µg/mL
- N-acyl variants in blood (1st trial) ([1]; time 0:30:00 (30 min)): 0 µg/mL
- N-acyl variants in blood (1st trial) ([1]; time 1:00:00 (1 h)): 0 µg/mL
- N-acyl variants in blood (1st trial) ([1]; time 2:00:00 (2 h)): 0 µg/mL
- N-acyl variants in blood (1st trial) ([1]; time 4:00:00 (4 h)): 0 µg/mL
- N-acyl variants in blood (1st trial) ([1]; time 6:00:00 (6 h)): 0 µg/mL
- N-acyl variants in blood (1st trial) ([1]; time 24:00:00 (24 h)): 0 µg/mL
- N-acyl variants in brain (2nd trial) [2]: 0 µg/mL
- N-acyl variants in heart (2nd trial) [2]: 0 µg/mL
- N-acyl variants in liver (2nd trial) [2]: 0 µg/mL and 0.1695 µg/mL and 0.1754 µg/mL

Molecule: Cc1onc(-c2ccccc2)c1C(=O)N[C@@H]1C(=O)N2[C@@H]1SC(C)(C)[C@@H]2C(=O)O [oxacillin]
- estimated t1/2 [4]: 7.8 min
